# Data: patent US12503438B2, “Compounds for the treatment of kinase-dependent disorders” (Exelixis, Inc., priority 2019, dated 2025)
# Experiments:
# [1] = target: KDR (Homo sapiens, UniProt P35968); test: Human KDR kinase assay (33P-phosphoryl transfer radiometric, KinaseProfiler); set-up: Human KDR (residues K790-V1356, 55 nM); purchased Eurofins Pharma Discovery Services UK Limited (KinaseProfiler service); conditions: biochemical activity; 10 μM ATP
# Description: (§1) Kinase activity and compound inhibition were investigated using the ^33P-Phosphoryl transfer radiometric kinase assay, performed using the KinaseProfiler™ service of Eurofins Pharma Discovery Services UK Limited. Dose-response experiments were performed using nine compound concentrations in a 96-well microtiter plate. For each assay, all compounds were prepared to a 50× final assay concentration (50 μM) in 100% DMSO, then diluted in a half-log series, with the final top concentration at 1 μM. This working stock of the compound was added to the assay well as the first component in the reaction, followed by the remaining components as detailed in the following assay protocols below. The positive control wells (100% kinase activity) contain all components of the reaction including 2% DMSO (control for solvent effects), except the compound of interest. Blank wells contain all components of the reaction, with the reference inhibitor, staurosporine. This reference compound was used to abolish kinase activity and generated the 0% kinase activity base-line. IC50 values were calculated by nonlinear regression analysis using the sigmoidal dose-response (variable slope) curve fit on XLFit version 5.3 (ID Business Solutions).
# (§2) Human KDR (residues K790-V1356, 55 nM) was incubated with 8 mM MOPS pH 7.0, 0.2 mM EDTA, 0.33 mg/mL myelin basic protein, 10 mM magnesium acetate, and 10 μM [γ-^33P-ATP]. The reaction was initiated by the addition of the Mg/ATP mix. After incubation for 40 minutes at room temperature, the reaction was stopped by the addition of phosphoric acid to a concentration of 0.5%. A reaction aliquot of 10 μL was then spotted onto a P30 filtermat and washed four times for 4 minutes in 0.425% phosphoric acid and once in methanol prior to drying and scintillation counting. Incorporated ^33P was measured using the Wallac Microbeta scintillation counter (Perkin Elmer).
# [2] = target: Met (Homo sapiens, UniProt P08581); test: Human Met kinase assay (33P-phosphoryl transfer radiometric, KinaseProfiler); set-up: Human Met (residues R974-S1390 with A1209G and V1290L, 3.4 nM); purchased Eurofins Pharma Discovery Services UK Limited (KinaseProfiler service); conditions: biochemical activity; 10 μM ATP; read-out: c-Met IC50
# Met, sequence (P08581 974-1390): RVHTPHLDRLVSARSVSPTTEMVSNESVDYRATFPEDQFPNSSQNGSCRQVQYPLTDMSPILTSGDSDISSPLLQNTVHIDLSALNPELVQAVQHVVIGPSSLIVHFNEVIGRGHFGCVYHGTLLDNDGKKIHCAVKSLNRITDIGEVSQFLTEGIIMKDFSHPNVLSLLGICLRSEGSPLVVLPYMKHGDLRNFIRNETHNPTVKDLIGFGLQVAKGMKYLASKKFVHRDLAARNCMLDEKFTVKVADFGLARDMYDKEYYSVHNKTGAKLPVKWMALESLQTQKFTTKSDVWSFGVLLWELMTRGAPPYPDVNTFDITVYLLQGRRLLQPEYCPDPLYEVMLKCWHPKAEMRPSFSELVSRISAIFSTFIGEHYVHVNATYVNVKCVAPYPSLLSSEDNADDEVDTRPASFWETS
# Description: as §1
# as §2, with “Met” for “KDR”, “R974-S1390 with A1209G and V1290L, 3.4” for “K790-V1356, 55”, “250 μM KKKGQEEEYVFIE, 1 mM sodium orthovanadate, 5 mM […],” for “0.33 mg/mL myelin basic protein,”
# [3] = target: T1, Human Mer (Homo sapiens, UniProt Q12866); test: Human Mer kinase assay (33P-phosphoryl transfer radiometric, KinaseProfiler); conditions: biochemical activity; 10 μM ATP
# T1 construct: Human Mer (residues R557-E882 with H628Q and R794A, 0.7 nM); purchased Eurofins Pharma Discovery Services UK Limited (KinaseProfiler service)
# T1 sequence (Q12866 557-882 limits assumed): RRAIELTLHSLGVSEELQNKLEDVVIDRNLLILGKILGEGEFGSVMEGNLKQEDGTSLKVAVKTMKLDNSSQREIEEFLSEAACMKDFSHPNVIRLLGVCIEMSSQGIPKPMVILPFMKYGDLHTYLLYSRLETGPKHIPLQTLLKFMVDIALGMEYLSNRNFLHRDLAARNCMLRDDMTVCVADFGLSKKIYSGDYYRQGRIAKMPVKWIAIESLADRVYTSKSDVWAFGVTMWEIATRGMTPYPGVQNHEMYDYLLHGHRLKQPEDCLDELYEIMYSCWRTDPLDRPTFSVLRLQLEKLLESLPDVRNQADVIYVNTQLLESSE
# Description: as §1
# as §2, with “Mer” for “KDR”, “R557-E882 with H628Q and R794A, 0.7” for “K790-V1356, 55”, “30 mM NaCl, 250 μM GGMEDIYFEFMGGKKK,” for “0.33 mg/mL myelin basic protein,”, “acetate” for “acetate,”, “[y-^33P-ATP].” for “[γ-^33P-ATP].”
# KDR, sequence (P35968 790-1356): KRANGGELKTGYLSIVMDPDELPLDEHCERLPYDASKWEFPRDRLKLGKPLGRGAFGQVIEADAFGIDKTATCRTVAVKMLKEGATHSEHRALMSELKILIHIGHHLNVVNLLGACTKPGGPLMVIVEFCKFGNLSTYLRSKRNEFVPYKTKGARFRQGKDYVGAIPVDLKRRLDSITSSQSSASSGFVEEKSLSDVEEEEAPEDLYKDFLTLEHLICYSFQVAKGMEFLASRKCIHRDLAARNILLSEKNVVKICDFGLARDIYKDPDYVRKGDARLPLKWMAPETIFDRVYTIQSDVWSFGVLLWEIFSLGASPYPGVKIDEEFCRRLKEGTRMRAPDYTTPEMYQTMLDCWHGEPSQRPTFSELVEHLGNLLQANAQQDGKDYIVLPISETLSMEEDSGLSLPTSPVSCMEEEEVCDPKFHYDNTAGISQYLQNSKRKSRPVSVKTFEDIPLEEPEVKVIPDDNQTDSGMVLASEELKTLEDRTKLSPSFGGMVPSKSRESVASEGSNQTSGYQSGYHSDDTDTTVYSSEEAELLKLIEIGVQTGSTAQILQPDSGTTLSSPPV
SMILES,IC50 [1] [nM],IC50 [2] [nM],IC50 [3] [nM]
"O=C(Nc1ccc(F)cc1)C1(C(=O)Nc2ccc(Oc3ccnc4cc(-c5cnn(C(F)(F)F)c5)ccc34)cc2)CC1 [Compound 12, 1-N′-(4-Fluorophenyl)-1-N-[4-[7-[1-(trifluoromethyl)pyrazol-4-yl]quinolin-4-yl]oxyphenyl]cyclopropane-1,1-dicarboxamide]",10 to 100,10 to 100,≤ 10
"Cn1ccc(-c2ccc3c(Oc4ccc(NC(=O)C5(C(=O)Nc6ccc(F)cc6)CC5)cc4)ccnc3c2)n1 [Compound 17, 1-N′-(4-Fluorophenyl)-1-N-[4-[7-(1-methylpyrazol-3-yl)quinolin-4-yl]oxyphenyl]cyclopropane-1,1-dicarboxamide]",10 to 100,≤ 10,≤ 10
"O=C(Nc1ccc(F)cc1)C1(C(=O)Nc2ccc(Oc3ccnc4cc(-c5cnn(CCN6CCOCC6)c5)ccc34)cc2)CC1 [Compound 19, 1-N′-(4-Fluorophenyl)-1-N-[4-[7-[1-(2-morpholin-4-ylethyl)pyrazol-4-yl]quinolin-4-yl]oxyphenyl]cyclopropane-1,1-dicarboxamide]",10 to 100,≤ 10,≤ 10
"O=C(Nc1ccc(F)cc1)C1(C(=O)Nc2ccc(Oc3ccnc4cc(-c5cnn(C6CC6)c5)ccc34)cc2)CC1 [Compound 22, 1-N-[4-[7-(1-Cyclopropylpyrazol-4-yl)quinolin-4-yl]oxyphenyl]-1-N′-(4-fluorophenyl)cyclopropane-1,1-dicarboxamide]",10 to 100,≤ 10,≤ 10
"CC(C)(C)n1cc(-c2ccc3c(Oc4ccc(NC(=O)C5(C(=O)Nc6ccc(F)cc6)CC5)cc4)ccnc3c2)cn1 [Compound 23, 1-N-[4-[7-(1-tert-Butylpyrazol-4-yl)quinolin-4-yl]oxyphenyl]-1-N′-(4-fluorophenyl)cyclopropane-1,1-dicarboxamide]",10 to 100,10 to 100,≤ 10
"O=C(Nc1ccc(F)cc1)C1(C(=O)Nc2ccc(Oc3ccnc4cc(-c5cnn(C6COC6)c5)ccc34)cc2)CC1 [Compound 24, 1-N′-(4-Fluorophenyl)-1-N-[4-[7-[1-(oxetan-3-yl)pyrazol-4-yl]quinolin-4-yl]oxyphenyl]cyclopropane-1,1-dicarboxamide]",10 to 100,≤ 10,≤ 10
"O=C(Nc1ccc(F)cc1)C1(C(=O)Nc2ccc(Oc3ccnc4cc(-c5cccnc5)ccc34)cc2)CC1 [Compound 25, 1-N′-(4-Fluorophenyl)-1-N-[4-(7-pyridin-3-ylquinolin-4-yl)oxyphenyl]cyclopropane-1,1-dicarboxamide]",10 to 100,≤ 10,≤ 10
"O=C(Nc1ccc(F)cc1)C1(C(=O)Nc2ccc(Oc3ccnc4cc(-c5ccncc5)ccc34)cc2)CC1 [Compound 26, 1-N′-(4-Fluorophenyl)-1-N-[4-(7-pyridin-4-ylquinolin-4-yl)oxyphenyl]cyclopropane-1,1-dicarboxamide]",10 to 100,≤ 10,≤ 10
"O=C(Nc1ccc(F)cc1)C1(C(=O)Nc2ccc(Oc3ccnc4cc(-c5cncnc5)ccc34)cc2)CC1 [Compound 27, 1-N′-(4-Fluorophenyl)-1-N-[4-(7-pyrimidin-5-ylquinolin-4-yl)oxyphenyl]cyclopropane-1,1-dicarboxamide]",≤ 10,≤ 10,≤ 10
"O=C(Nc1ccc(F)cc1)C1(C(=O)Nc2ccc(Oc3ccnc4cc(-c5ccnnc5)ccc34)cc2)CC1 [Compound 28, 1-N′-(4-Fluorophenyl)-1-N-[4-(7-pyridazin-4-ylquinolin-4-yl)oxyphenyl]cyclopropane-1,1-dicarboxamide]",10 to 100,≤ 10,≤ 10

# Further lines, results first:
IC50 [1] [nM],IC50 [2] [nM],IC50 [3] [nM],SMILES
10 to 100,10 to 100,≤ 10,"COCCn1cc(-c2ccc3c(Oc4ccc(NC(=O)C5(C(=O)Nc6ccc(F)cc6)CC5)cc4)ccnc3c2)cn1 [Compound 10, 1-N′-(4-Fluorophenyl)-1-N-[4-[7-[1-(2-methoxyethyl)pyrazol-4-yl]quinolin-4-yl]oxyphenyl]cyclopropane-1,1-dicarboxamide]"
10 to 100,≤ 10,≤ 10,"Cn1cc(-c2ccc3c(Oc4ccc(NC(=O)C5(C(=O)Nc6ccc(F)cc6)CC5)cc4)ccnc3c2)cn1 [Compound 11, 1-N′-(4-Fluorophenyl)-1-N-[4-[7-(1-methylpyrazol-4-yl)quinolin-4-yl]oxyphenyl]cyclopropane-1,1-dicarboxamide]"
10 to 100,≤ 10,≤ 10,"O=C(Nc1ccc(F)cc1)C1(C(=O)Nc2ccc(Oc3ccnc4cc(-c5cnn(C(F)F)c5)ccc34)cc2)CC1 [Compound 13, 1-N-[4-[7-[1-(Difluoromethyl)pyrazol-4-yl]quinolin-4-yl]oxyphenyl]-1-N′-(4-fluorophenyl)cyclopropane-1,1-dicarboxamide]"
10 to 100,≤ 10,≤ 10,"O=C(Nc1ccc(F)cc1)C1(C(=O)Nc2ccc(Oc3ccnc4cc(-c5cnn(CCF)c5)ccc34)cc2)CC1 [Compound 14, 1-N-[4-[7-[1-(2-Fluoroethyl)pyrazol-4-yl]quinolin-4-yl]oxyphenyl]-1-N′-(4-fluorophenyl)cyclopropane-1,1-dicarboxamide]"
10 to 100,≤ 10,≤ 10,"O=C(Nc1ccc(F)cc1)C1(C(=O)Nc2ccc(Oc3ccnc4cc(-c5cnn(CC(F)F)c5)ccc34)cc2)CC1 [Compound 15, 1-N-[4-[7-[1-(2,2-Difluoroethyl)pyrazol-4-yl]quinolin-4-yl]oxyphenyl]-1-N′-(4-fluorophenyl)cyclopropane-1,1-dicarboxamide]"
10 to 100,10 to 100,≤ 10,"O=C(Nc1ccc(F)cc1)C1(C(=O)Nc2ccc(Oc3ccnc4cc(-c5cnn(CC(F)(F)F)c5)ccc34)cc2)CC1 [Compound 16, 1-N′-(4-Fluorophenyl)-1-N-[4-[7-[1-(2,2,2-trifluoroethyl)pyrazol-4-yl]quinolin-4-yl]oxyphenyl]cyclopropane-1,1-dicarboxamide]"
≤ 10,≤ 10,≤ 10,"O=C(Nc1ccc(F)cc1)C1(C(=O)Nc2ccc(Oc3ccnc4cc(-c5cnn(CCO)c5)ccc34)cc2)CC1 [Compound 18, 1-N′-(4-Fluorophenyl)-1-N-[4-[7-[1-(2-hydroxyethyl)pyrazol-4-yl]quinolin-4-yl]oxyphenyl]cyclopropane-1,1-dicarboxamide]"
10 to 100,≤ 10,≤ 10,"CCn1cc(-c2ccc3c(Oc4ccc(NC(=O)C5(C(=O)Nc6ccc(F)cc6)CC5)cc4)ccnc3c2)cn1 [Compound 20, 1-N-[4-[7-(1-Ethylpyrazol-4-yl)quinolin-4-yl]oxyphenyl]-1-N′-(4-fluorophenyl)cyclopropane-1,1-dicarboxamide]"
